Measured values reported in US20150119245A1, “Method for Producing Shelf Stable Hypochlorous Acid Solutions” (priority 2013, published 2015).

How the values were obtained:
[1] = Window cleaner streak test, sprayed on glass and dried without wiping; settings: test solution as used in streak test
[2] = Available chlorine present as hypochlorous acid as a function of pH (FIG. 2); format: physicochemical
Description: The concentration of hypochlorous acid solutions (HOCl) are usually reported as free available chlorine (FAC) in parts per million (ppm). Hypochlorous acid (HOCl) is in equilibrium with hypochlorite ion (^−OCl) and Cl2 and the extent of the equilibrium is controlled by the pH of the solution, as shown in FIG. 2. Therefore, both FAC and pH need to be known to understand the amount of chlorine present as hypochlorous acid.
Thus at pH 5, a 100 ppm FAC solution will have 100 ppm chlorine present as HOCl.

| SMILES | pH [1] | FAC present as hypochlorous acid ([2]; pH 7.5) | available chlorine present as hypochlorous acid ([2]; pH of 3) | available chlorine present as HOCl ([2]; pH range of 4 to 5.6) |
| --- | --- | --- | --- | --- |
| [Na+].[OH-] [NaOH, sodium hydroxide] | 12.2 | – | – | – |
| OCl [hypochlorous acid] | – | 50% | about 90% | approximately 100% |
